Measurements as given in US20240208997A1, “CYCLIC BENZIMIDAZOLE DERIVATIVES AS CGAS INHIBITORS” (Boehringer Ingelheim International GmbH, priority 2022, published 2024).

Columns and labels:
[1] = test system: IFN induction in cGAMP-stimulated THP1 cells; test: cGAMP stimulated counter cell assay in THP1-Dual cells (THP1(cGAMP) IC50); assay type: cell-based, human; conditions: Table 1; for IC50: Homo sapiens, THP-1, counter assay, 10 μM cGAMP stimulation, read-out: THP(cGAMP) IC50; for Ratio THP(cGAMP) IC50/THP(vir) IC50: selectivity for cGAS-inhibition
Text: (§1) 6.2 Method: Human cGAS Cell Assay and cGAMP Stimulated Counter Cell Assay (THP1(vir) IC50 and THP1(cGAMP) IC50)
For the counter assay, cells were stimulated by cGAMP (SigmaAldrich #SML1232) to activate the identical pathway independent and directly downstream of cGAS (measurement of THP1(cGAMP) IC50).
(§2) Pathway activity was monitored by measuring the Lucia luciferase activity induced by either DNA stimulated cGAS enzyme activity (measurement of THP1(vir) IC50) or by cGAMP directly (measurement of THP1(cGAMP) IC50, counter assay).
(§3) Compounds were delivered in 10 mM DMSO solution, serially diluted and transferred to the 384 well assay plate (Greiner #781201) using an Echo acoustic dispenser. Typically, 8 concentrations were used with the highest concentration at 10 μM in the final assay volume followed by ^˜1:5 dilution steps. DMSO concentration was set to 1% in the final assay volume. The 384 well assay plate contained […] (column 1-22), and DMSO in column 23 and 24.
(§4) Cells, cultivated according to manufacturer conditions, were harvested by centrifugation at 300 g/10 min and were then resuspended and diluted to 1.66E5 cells/ml in fresh cell culture medium (RPMI 1640 (Gibco #A10491-01), 10% FCS (Gibco #10500), 1× GlutaMax (Gibco #35050-061), 1× Pen/Strep solution (Gibco #15140-122), 100 μg/ml Normocin (InvivoGen #ant-nr), 100 μg/ml Zeocin (InvivoGen #ant-zn), 10 μg/ml Blasticidin S (Life Technologies #A11139-03)). The baculovirus solution was then added 1:200 (have varied according to virus batch) to the cells (measurement of THP1(vir) IC50).
(§5) 30 μL of the cell/virus-mix were added to each well of the compound plate from column 1-23 via MultiDrop Combi dispenser (5000 cells/well). In column 24, 30 μl/5000 cells/well without virus were added as a low control.
(§6) The plates were then incubated for 18 h at 37° C. in a humidified incubator.
(§7) Following that, 15 μL of QuantiLuc detection reagent (InvivoGen #rep-qlcg5) were added to each well using a MultiDrop Combi. Measurement was done immediately after the addition using an EnVision reader (US-luminescence read-mode).
(§8) Data Evaluation and Calculation:
(§9) For data evaluation and calculation, the measurement of the low control was set as 0% control and the measurement of the high control was set as 100% control. The IC50 values were calculated using the standard 4 parameter logistic regression formula. Calculation: [y=(a−d)/(1+(x/c)^b)+d], a=low value, d=high value; x=conc M; c=IC50 M; b=slope

[2] = test system: IFN induction in dsDNA-stimulated human whole blood; test: Human whole blood assay (hWB IC50), dsDNA stimulated, IFNα2α production; assay type: cell-based; conditions: Table 1
Protocol: 6.3 Method: Human Whole Blood Assay (Human WB IC50)
For the detection of cellular cGAS activity human whole blood was stimulated by transfection with double stranded DNA. Pathway activity was monitored by measuring the IFNα2α production.
Compounds were delivered as 10 mM DMSO solution and serially diluted and transferred to the 96-well cell culture plate (Corning #3595), prefilled with 20 μl OptiMEM (Gibco, #11058-021) in each well, using an Echo acoustic dispenser. Typically, 8 concentrations were used with the highest concentration at 10 μM in the final assay volume followed by ^˜1:5 dilution steps. DMSO concentration was set to 0.1% in the final assay volume. The 96-well assay plate contained 10 test compounds, and DMSO in control wells.
Collection of human whole blood from 3 or more healthy donors (male or female, no medication for 7 days except contraceptive and thyroxine) as Na-Citrate blood (e.g. 3.8% in Monovettes from Sarstedt) was conducted in parallel. Whole blood was kept at room temperature for a maximum of 3 hours after collection until use in the assay. 160 μl of the whole blood samples was transferred to each well of the 96-well assay plates filled with compound/OptiMEM. All assay plates were prepared as duplicates with blood from different donors. Blood plates were kept at room temperature for 60 minutes and continuous shaking with 450 rpm, covered with the lid, but not sealed.
20 μl OptiMEM and 9.6:1 Fugene was added to all low control wells.
After covering assay plates with aera seals and the lid, blood plates were kept at room temperature for 30 minutes and continuous shaking with 450 rpm, followed by an overnight incubation of 22 h at 37° C. in the incubator, without shaking.
For the detection of IFNα-2α in human plasma, the biotinylated capture antibody (Antibody set IFNA2, Meso Scale Diagnostics #B21VH-3, including coating and capture antibody) was diluted 1:17.5 in Diluent 100 (Meso Scale Diagnostics #R50AA-4), according to the manufacturer's directions. U-Plex MSD GOLD 96-well Small Spot Strepavidin SECTOR Plates (Meso Scale Diagnostics #L45SA-5) were coated with 25 μl diluted capture antibody. Coated plates were incubated for 60 min at room temperature under continuous shaking at 700 rpm. MSD IFNα-2α plates were washed three times with 150 μl wash buffer (1× HBSS, 0.05% Tween).
After blocking the plates with 100 μl block solution/well (1× HBSS with 0.2% Tween, 2% BSA) for 60 min at room temperature and continuous shaking at 700 rpm, plates were emptied as dry as possible by dumping just before continuing with the human plasma.
Whole Blood assay plates were centrifuged at 1600 rpm for 10 minutes. 25 μl of supernatant was transferred with a pipetting robot from each whole blood plate to the corresponding IFNα-2α plate. Plates were sealed with microplate seals and kept at room temperature again under continuous shaking at 700 rpm for two hours.
Next MSD IFNα-2α plates were washed three times with 150 μl wash buffer (1× HBSS, 0.05% Tween), before adding 25 μl MSD SULFO-TAG IFNα-2α Antibody solution (1:100 diluted in Diluent 3 (Meso Scale Diagnostics #R50AP-2) to each well of the plates.
Afterwards plates were sealed with microplate seals and kept at room temperature again under continuous shaking at 700 rpm for two hours. Finally, MSD IFNα-2α plates were washed three times with 150 μl wash buffer (1× HBSS, 0.05% Tween). 150 μl 2× Read buffer was added to each well and plates were immediately measured with the MSD Sector S600 Reader using the vendor barcode.
as §8
For data evaluation and calculation, % control calculation of each well was based on the mean of high (DNA stimulated control) and mean of low (unstimulated control) controls by using the following formula:
[counts(sample)−counts(low))/(counts(high)−counts(low))]*100
The IC50-values were calculated using the standard 4 parameter logistic regression formula. […]

[3] = test system: IFN induction in virus-stimulated THP1 cells; test: Human cGAS cell assay, virus-stimulated THP1-Dual cells (THP1(vir) IC50); assay type: cell-based; conditions: THP-1, 18 h, Table 1, baculovirus-stimulated THP1-Dual cells, Lucia luciferase, 18 h, read-out: THP(vir) IC50
Text: as §1
THP1-Dual™ cells (InvivoGen #thpd-nfis) expressing IRF dependent Lucia luciferase reporter were used as basis for both assays. For the detection of cellular cGAS activity cells were stimulated by a baculovirus (pFastbac-1, Invitrogen, no coding insert) infection that delivers the cGAS enzyme stimulating double-stranded DNA (measurement of THP1(vir) IC50).
as §2, §3, §4, §5, §6, §7, §8, §9

Row | Structure (SMILES) | IC50 [1] | Ratio THP(cGAMP) IC50/THP(vir) IC50 [1] | IC50 [2] | IC50 [3]
1 | C[C@H]1CN2CC[C@@H]1n1c(nc3ccccc31)O[C@H]1C[C@@H](C(=O)O)N(C1)c1nc(nc3c1oc1ccccc13)CCCC(C)(C)CCC2=O [Example 1.23] | 9500 nM | 51 | 143 nM | 190 nM
2 | C[C@H]1CN2CC[C@@H]1n1c(nc3ccccc31)O[C@H]1C[C@@H](C(=O)O)N(C1)c1nc(nc3c1oc1ccccc13)CCCCCCC2=O (racemic) [Example 1.24] | 11000 nM | 65 | 86 nM | 170 nM
3 | C[C@H]1CN2CC[C@@H]1n1c(nc3ccccc31)O[C@H]1C[C@@H](C(=O)O)N(C1)c1nc(nc3c1oc1ccccc13)CCCCCC2=O [Example 1.19] | 11000 nM | 277 | 18 nM | 40 nM
4 | C[C@H]1CN2CC[C@@H]1n1c(nc3ccc(Cl)cc31)O[C@H]1C[C@@H](C(=O)O)N(C1)c1nc(nc3c1oc1ccccc13)CCOCCCC2=O [Example 1.06] | > 10000 nM | >2417 | 15 nM | 4.1 nM
5 | C[C@H]1CN2CC[C@@H]1n1c(nc3ccccc31)O[C@H]1C[C@@H](C(=O)O)N(C1)c1nc(nc3c1oc1ccccc13)C(F)(F)CCCCC(F)(F)C2=O [Example 1.17] | 6600 nM | 519 | 8 nM | 13 nM
6 | O=C(O)[C@@H]1C[C@H]2CN1c1nc(nc3c1oc1ccccc13)COCCCC(F)(F)C(=O)N1CCC(CC1)n1c(nc3ccccc31)O2 [Example 8.01] | > 10000 nM | 255 | 35 nM | 39 nM
7 | C[C@H]1CN2CC[C@@H]1n1c(nc3cc(Cl)ccc31)O[C@H]1C[C@@H](C(=O)O)N(C1)c1nc(nc3c1oc1cc(F)ccc13)CCCCOCC2=O [Example 1.09] | > 10000 nM | 4305 | 2 nM | 4.3 nM
8 | C[C@H]1CN2CC[C@@H]1n1c(nc3cc(Cl)ccc31)O[C@H]1C[C@@H](C(=O)O)N(C1)c1nc(nc3c1oc1ccccc13)C(F)(F)OCCCCC2=O [Example 6.01] | > 10000 nM | >2225 | 3 nM | 3.1 nM
9 | C[C@H]1CN2CC[C@@H]1n1c(nc3ccc(Cl)cc31)O[C@H]1C[C@@H](C(=O)O)N(C1)c1nc(nc3c1oc1ccccc13)COCCCCC2=O [Example 1.10] | > 10000 nM | >790 | 12 nM | 13 nM
10 | C[C@H]1CN2CC[C@@H]1n1c(nc3ccccc31)O[C@H]1C[C@@H](C(=O)O)N(C1)c1nc(nc3c1oc1ccccc13)C(F)(F)COCCCCC2=O [Example 3.01] | 14000 nM | 32066 | 1 nM | 0.44 nM
11 | C[C@@H]1CN2CC[C@H]1n1c(nc3cc(Cl)ccc31)O[C@H]1C[C@@H](C(=O)O)N(C1)c1nc(nc3c1oc1ccccc13)CCOCCCC2=O [Example 1.01] | > 10000 nM | >253 | 87 nM | 39 nM
12 | C[C@H]1CN2CC[C@@H]1n1c(nc3ccccc31)O[C@H]1C[C@@H](C(=O)O)N(C1)c1nc(nc3c1oc1ccccc13)CCCCCOC2=O [Example 10.02] | > 10000 nM | >156 | 83 nM | 64 nM
13 | C[C@@H]1CCCCC(=O)N2CCC(CC2)n2c(nc3ccccc32)O[C@H]2C[C@@H](C(=O)O)N(C2)c2nc1nc1c2oc2ccccc21 [Example 1.26] | 15000 nM | 2687 | 19 nM | 5.5 nM
14 | CC1CCc2nc(c3oc4ccccc4c3n2)N2C[C@H](C[C@H]2C(=O)O)Oc2nc3cc(Cl)ccc3n2[C@H]2CCN(C[C@@H]2C)C(=O)CCO1 (stereo partly shown) [Example 1.20] | > 10000 nM | >773 | 7 nM | 13 nM
15 | C[C@H]1CN2CC[C@@H]1n1c(nc3cc(Cl)ccc31)O[C@H]1C[C@@H](C(=O)O)N(C1)c1nc(nc3c1oc1ccccc13)C(F)(F)CCCOCC2=O [Example 1.21] | > 10000 nM | >5238 | 1 nM | 1.9 nM
16 | O=C(O)[C@@H]1C[C@H]2CN1c1nc(nc3c1oc1ccccc13)CCOCCCC(=O)N1CCC(CC1)n1c(nc3cc(F)ccc31)O2 [Example 1.03] | > 10000 nM | >90 | 36 nM | 110 nM
17 | C[C@H]1CN2CC[C@@H]1n1c(nc3cccc(Cl)c31)O[C@H]1C[C@@H](C(=O)O)N(C1)c1nc(nc3c1oc1ccccc13)CC(=O)NCCCC2=O (racemic) [Example 2.01, (12S,14S)-4-chloro-37-methyl-29,34-dioxo-11,18-dioxa-2,9,15,26,30,35,40-heptaazaoctacyclo[33.2.2.1^12,15.1^16,27.0^2,10.0^3,8.0^17,25.0^19,24]hentetraconta-3,5,7,9,16(40),17(25),19(24),20,22,26-decaene-14-carboxylic acid] | > 10000 nM | >948 | 35 nM | 11 nM
18 | O=C(O)[C@@H]1C[C@H]2CN1c1nc(nc3c1oc1ccccc13)CCCOCC(=O)N1CCC(CC1)n1c(nc3ccccc31)O2 [Example 9.01] |  |  | 41 nM | 400 nM
